Assay [1] relates to angiogenesis/capillary network formation. The settings on record: in vitro; Alliegro and Glaser, J. Cell Biol. 115: 402a (1991); cited from earlier work.
Assay [2] addresses T1, urokinase enzyme Abbokinase (Homo sapiens, UniProt P00749).
T1 construct: purchased Abbott Laboratories, Abbott Park, Ill
Put plainly: Determination of Urokinase Inhibition (chromogenic substrate S-2444). It counts as biochemical. The following applies: substrate S-2444 at 200 μM, pH 7.4, enzyme 2-3 nM, 405 nm, 15 minutes; read-out: Inhibitory Potency Against Urokinase, IC50. How it is done:
Distributor of Chromogenix) at 200 μM. […] Four concentrations were chosen, then 5 μl of each were diluted to a total assay volume of 200 μl. […] Several vials were reconstituted as directed on the vial, aliquoted and stored frozen. The enzyme was further diluted in assay buffer and 10 μl was used in the assay. Enzyme concentration in the assay was 2-3 nM. […] The Spectromax® calculated the reaction rates which were used to calculate percent inhibition of the compounds of this invention versus the reaction rate of the enzyme in the absence of any inhibitor. The Ki 's of the inhibitors were calculated from the percent inhibition and previously established Km.

As usually defined, the IC50 is the concentration that gives 50% inhibition.

Counter-ions that a name gives are not always drawn.

For `N=C(N)NC(=O)c1nc(Cl)c(N)nc1N` [Amiloride], in assay [1], the “inhibit angiogenesis/capillary network formation” value is listed as “angiogenesis/capillary network formation in vitro”.
Turning to `N=C(N)c1cc2c(Nc3nccs3)cccc2s1` [Example 2, 4-(1,3-thiazol-2-ylamino)-1-benzothiophene-2-carboximidamide trifluoroacetic acid salt], in assay [2], the IC50 worked out at 192 nM.
On to `N=C(N)c1cc2ccc(C(=O)Nc3ccccc3)cc2s1` [Example 3, 2-[amino(imino)methyl]-N-phenyl-1-benzothiophene-6-carboxamide], for which, in assay [2], the IC50 is 3220 nM.
With `CC(C)Oc1cccc(NC(=O)c2ccc3cc(C(=N)N)sc3c2)c1` [Example 4, 2-[amino(imino)methyl]-N-(3-isopropoxyphenyl)-1-benzothiophene-6-carboxamide], the IC50 in assay [2] amounted to 680 nM.

(Values after patent US6207701A, “Urokinase inhibitors” (Abbott Laboratories, priority 2000, dated 2001).)
